Results on ten cell lines are retold here after the supplement of paper PMC10307832.

Common to all, as to test: relative viability (nuclei count vs DMSO), 5 days (fraction); higher = more cells survive
Compound in the experiment “Gemcitabine + Alpelisib”: Nc1ccn([C@@H]2O[C@H](CO)[C@@H](O)C2(F)F)c(=O)n1 [Gemcitabine] + Cc1nc(NC(=O)N2CCC[C@H]2C(N)=O)sc1-c1ccnc(C(C)(C)C(F)(F)F)c1 [Alpelisib] (partner 2 µM)
Put shortly:
(§1)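 Each reported value is a median over duplicate plates. It expresses relative viability: treated-well nuclei count divided by vehicle-well nuclei count. Lung cancer cell lines in 1536-well plates were dosed by pin tool a day after seeding, alone with one drug or with a fixed anchor-drug dose plus five library-drug doses (not always all listed) in √10 steps, and nuclei were counted after 5 days.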

Compound in the experiment “Gemcitabine + Pemetrexed”: Nc1ccn([C@@H]2O[C@H](CO)[C@@H](O)C2(F)F)c(=O)n1 [Gemcitabine] + Nc1nc2[nH]cc(CCc3ccc(C(=O)N[C@@H](CCC(=O)O)C(=O)O)cc3)c2c(=O)[nH]1 [Pemetrexed] (partner 0.2 µM)
Put shortly: as §1

Compound in the experiment “Gemcitabine + Foretinib”: Nc1ccn([C@@H]2O[C@H](CO)[C@@H](O)C2(F)F)c(=O)n1 [Gemcitabine] + COc1cc2c(Oc3ccc(NC(=O)C4(C(=O)Nc5ccc(F)cc5)CC4)cc3F)ccnc2cc1OCCCN1CCOCC1 [Foretinib] (partner 0.25 µM)
The method, boiled down: as §1

Compound in the experiment “Gemcitabine + Olaparib”: Nc1ccn([C@@H]2O[C@H](CO)[C@@H](O)C2(F)F)c(=O)n1 [Gemcitabine] + O=C(c1cc(Cc2n[nH]c(=O)c3ccccc23)ccc1F)N1CCN(C(=O)C2CC2)CC1 [Olaparib] (partner 8 µM)
Put shortly: as §1

Consider NCI-H1993, for which the relative viability is 0.706 with Gemcitabine + Alpelisib (first compound 0.001 µM); 0.642 with Gemcitabine + Alpelisib (first compound 0.003162 µM); 0.528 in the experiment with Gemcitabine + Alpelisib (first compound 0.01 µM); 0.528 with Gemcitabine + Alpelisib (first compound 0.03162 µM); 0.491 with Gemcitabine + Alpelisib (first compound 0.1 µM); 0.545 with Gemcitabine + Pemetrexed (first compound 0.001 µM). Also, the relative viability worked out at 0.513 in the experiment with Gemcitabine + Pemetrexed (first compound 0.003162 µM); 0.516 with Gemcitabine + Pemetrexed (first compound 0.01 µM); 1.17 in the experiment with Gemcitabine + Pemetrexed (first compound 0.03162 µM); 0.409 with Gemcitabine + Pemetrexed (first compound 0.1 µM); 0.561 with Gemcitabine + Foretinib (first compound 0.001 µM); 0.833 with Gemcitabine + Foretinib (first compound 0.003162 µM). The relative viability was determined as 0.61 in the experiment with Gemcitabine + Foretinib (first compound 0.01 µM); 0.63 with Gemcitabine + Foretinib (first compound 0.03162 µM); 0.588 with Gemcitabine + Foretinib (first compound 0.1 µM); 1.01 in the experiment with Gemcitabine + Olaparib (first compound 0.001 µM); 0.908 with Gemcitabine + Olaparib (first compound 0.003162 µM); 0.519 with Gemcitabine + Olaparib (first compound 0.01 µM). The relative viability with Gemcitabine + Olaparib (first compound 0.03162 µM) amounted to 0.412; with Gemcitabine + Olaparib (first compound 0.1 µM) it was 0.428.

Take SW 900: the relative viability with Gemcitabine + Pemetrexed (first compound 0.001 µM) was found to be 0.476; with Gemcitabine + Pemetrexed (first compound 0.003162 µM), 0.401; with Gemcitabine + Pemetrexed (first compound 0.01 µM), 0.171; in the experiment with Gemcitabine + Pemetrexed (first compound 0.03162 µM), 0.124; in the experiment with Gemcitabine + Pemetrexed (first compound 0.1 µM) it was 0.109; in the experiment with Gemcitabine + Foretinib (first compound 0.001 µM) it was 0.697. Further, the relative viability worked out at 0.511 with Gemcitabine + Foretinib (first compound 0.003162 µM); 0.117 in the experiment with Gemcitabine + Foretinib (first compound 0.01 µM); 0.0938 with Gemcitabine + Foretinib (first compound 0.03162 µM); 0.0882 in the experiment with Gemcitabine + Foretinib (first compound 0.1 µM); 0.837 in the experiment with Gemcitabine + Olaparib (first compound 0.001 µM); 0.543 with Gemcitabine + Olaparib (first compound 0.003162 µM). Moreover, the values for the relative viability with Gemcitabine + Olaparib (first compound 0.01 µM), with Gemcitabine + Olaparib (first compound 0.03162 µM) and with Gemcitabine + Olaparib (first compound 0.1 µM) were 0.165, 0.168 and 0.134, respectively.

For NCI-H1650, the relative viability in the experiment with Gemcitabine + Pemetrexed (first compound 0.001 µM) was 0.362; with Gemcitabine + Pemetrexed (first compound 0.003162 µM), 0.326; with Gemcitabine + Pemetrexed (first compound 0.01 µM) it was 0.305; with Gemcitabine + Pemetrexed (first compound 0.03162 µM), 0.157; with Gemcitabine + Pemetrexed (first compound 0.1 µM), 0.172; in the experiment with Gemcitabine + Foretinib (first compound 0.001 µM), 1.28. The relative viability is 0.666 in the experiment with Gemcitabine + Foretinib (first compound 0.003162 µM); 0.374 in the experiment with Gemcitabine + Foretinib (first compound 0.01 µM); 0.179 with Gemcitabine + Foretinib (first compound 0.03162 µM); 0.145 with Gemcitabine + Foretinib (first compound 0.1 µM); 0.886 in the experiment with Gemcitabine + Olaparib (first compound 0.001 µM); 0.522 with Gemcitabine + Olaparib (first compound 0.003162 µM). The relative viability stood at 0.479 with Gemcitabine + Olaparib (first compound 0.01 µM), 0.12 with Gemcitabine + Olaparib (first compound 0.03162 µM) and 0.122 in the experiment with Gemcitabine + Olaparib (first compound 0.1 µM).

Consider NCI-H522, for which the relative viability with Gemcitabine + Pemetrexed (first compound 0.001 µM) stood at 0.954; with Gemcitabine + Pemetrexed (first compound 0.003162 µM) it was 0.953; with Gemcitabine + Pemetrexed (first compound 0.01 µM) it was 0.419; in the experiment with Gemcitabine + Pemetrexed (first compound 0.03162 µM), 0.367; with Gemcitabine + Pemetrexed (first compound 0.1 µM), 0.316; with Gemcitabine + Olaparib (first compound 0.001 µM), 0.639. Besides, the relative viability with Gemcitabine + Olaparib (first compound 0.003162 µM) amounted to 0.641; with Gemcitabine + Olaparib (first compound 0.01 µM), 0.323; with Gemcitabine + Olaparib (first compound 0.03162 µM), 0.306; with Gemcitabine + Olaparib (first compound 0.1 µM), 0.3.

Take IA-LM: the relative viability in the experiment with Gemcitabine + Alpelisib (first compound 0.001 µM) amounted to 0.789; with Gemcitabine + Alpelisib (first compound 0.003162 µM) it was 0.644; in the experiment with Gemcitabine + Alpelisib (first compound 0.01 µM), 0.744; in the experiment with Gemcitabine + Alpelisib (first compound 0.03162 µM) it was 0.0658; in the experiment with Gemcitabine + Alpelisib (first compound 0.1 µM), 0.0561; in the experiment with Gemcitabine + Foretinib (first compound 0.001 µM), 1.07. The relative viability was 0.916 with Gemcitabine + Foretinib (first compound 0.003162 µM); 1.11 with Gemcitabine + Foretinib (first compound 0.01 µM); 0.0445 with Gemcitabine + Foretinib (first compound 0.03162 µM); 0.0363 in the experiment with Gemcitabine + Foretinib (first compound 0.1 µM); 0.854 with Gemcitabine + Olaparib (first compound 0.001 µM); 0.788 with Gemcitabine + Olaparib (first compound 0.003162 µM). The relative viability with Gemcitabine + Olaparib (first compound 0.01 µM) was found to be 0.797; with Gemcitabine + Olaparib (first compound 0.03162 µM), 0.0888; with Gemcitabine + Olaparib (first compound 0.1 µM) it was 0.0689.

Regarding NCI-H1563, the relative viability is 0.99 with Gemcitabine + Alpelisib (first compound 0.001 µM); 0.94 with Gemcitabine + Alpelisib (first compound 0.003162 µM); 0.635 in the experiment with Gemcitabine + Alpelisib (first compound 0.01 µM); 0.651 with Gemcitabine + Alpelisib (first compound 0.03162 µM); 0.428 with Gemcitabine + Alpelisib (first compound 0.1 µM); 0.748 with Gemcitabine + Pemetrexed (first compound 0.001 µM). In addition, the relative viability with Gemcitabine + Pemetrexed (first compound 0.003162 µM) amounted to 0.852; in the experiment with Gemcitabine + Pemetrexed (first compound 0.01 µM) it was 0.833; with Gemcitabine + Pemetrexed (first compound 0.03162 µM), 0.407; in the experiment with Gemcitabine + Pemetrexed (first compound 0.1 µM), 0.414; with Gemcitabine + Foretinib (first compound 0.001 µM), 0.948; with Gemcitabine + Foretinib (first compound 0.003162 µM) it was 0.916. The results for the relative viability with Gemcitabine + Foretinib (first compound 0.01 µM), with Gemcitabine + Foretinib (first compound 0.03162 µM) and with Gemcitabine + Foretinib (first compound 0.1 µM) were 0.706, 0.566 and 0.526, respectively.

With HCC-44, the relative viability with Gemcitabine + Alpelisib (first compound 0.001 µM) was found to be 0.808; with Gemcitabine + Alpelisib (first compound 0.003162 µM), 0.791; in the experiment with Gemcitabine + Alpelisib (first compound 0.01 µM), 0.636; with Gemcitabine + Alpelisib (first compound 0.03162 µM) it was 0.238; in the experiment with Gemcitabine + Alpelisib (first compound 0.1 µM), 0.122; in the experiment with Gemcitabine + Pemetrexed (first compound 0.001 µM), 0.634. For the same cell line, the relative viability in the experiment with Gemcitabine + Pemetrexed (first compound 0.003162 µM) came to 0.68; with Gemcitabine + Pemetrexed (first compound 0.01 µM), 0.66; in the experiment with Gemcitabine + Pemetrexed (first compound 0.03162 µM) it was 0.632; with Gemcitabine + Pemetrexed (first compound 0.1 µM), 0.63; with Gemcitabine + Olaparib (first compound 0.001 µM), 0.932; with Gemcitabine + Olaparib (first compound 0.003162 µM), 0.988. Besides, the values for the relative viability with Gemcitabine + Olaparib (first compound 0.01 µM), with Gemcitabine + Olaparib (first compound 0.03162 µM) and in the experiment with Gemcitabine + Olaparib (first compound 0.1 µM) were 0.931, 0.704 and 0.391, respectively.

As for ABC-1, the relative viability with Gemcitabine + Alpelisib (first compound 0.001 µM) was determined as 0.95; in the experiment with Gemcitabine + Alpelisib (first compound 0.003162 µM), 0.97; with Gemcitabine + Alpelisib (first compound 0.01 µM) it was 0.838; with Gemcitabine + Alpelisib (first compound 0.03162 µM) it was 0.45; with Gemcitabine + Alpelisib (first compound 0.1 µM), 0.307; in the experiment with Gemcitabine + Foretinib (first compound 0.001 µM), 0.886. In addition, the relative viability amounted to 1.06 with Gemcitabine + Foretinib (first compound 0.01 µM); 0.312 in the experiment with Gemcitabine + Foretinib (first compound 0.03162 µM); 0.17 in the experiment with Gemcitabine + Foretinib (first compound 0.1 µM); 0.687 with Gemcitabine + Olaparib (first compound 0.003162 µM); 0.54 with Gemcitabine + Olaparib (first compound 0.01 µM); 0.427 with Gemcitabine + Olaparib (first compound 0.03162 µM). The relative viability with Gemcitabine + Olaparib (first compound 0.1 µM) stood at 0.398.

NCI-H2342: the relative viability with Gemcitabine + Pemetrexed (first compound 0.001 µM) stood at 0.821; in the experiment with Gemcitabine + Pemetrexed (first compound 0.003162 µM), 0.698; with Gemcitabine + Pemetrexed (first compound 0.01 µM) it was 0.748; with Gemcitabine + Pemetrexed (first compound 0.03162 µM) it was 0.412; in the experiment with Gemcitabine + Pemetrexed (first compound 0.1 µM) it was 0.337; with Gemcitabine + Foretinib (first compound 0.001 µM), 1.08. Besides, the relative viability with Gemcitabine + Foretinib (first compound 0.003162 µM) was 1; with Gemcitabine + Foretinib (first compound 0.01 µM), 0.712; with Gemcitabine + Foretinib (first compound 0.03162 µM), 0.389; in the experiment with Gemcitabine + Foretinib (first compound 0.1 µM) it was 0.258; in the experiment with Gemcitabine + Olaparib (first compound 0.001 µM) it was 0.457; with Gemcitabine + Olaparib (first compound 0.003162 µM), 0.401. The results for the relative viability with Gemcitabine + Olaparib (first compound 0.01 µM), with Gemcitabine + Olaparib (first compound 0.03162 µM) and with Gemcitabine + Olaparib (first compound 0.1 µM) were 0.277, 0.244 and 0.259, respectively.

As for NCI-H1792, the relative viability with Gemcitabine + Alpelisib (first compound 0.001 µM) was 0.774; with Gemcitabine + Alpelisib (first compound 0.003162 µM), 0.483; with Gemcitabine + Alpelisib (first compound 0.01 µM), 0.182; in the experiment with Gemcitabine + Alpelisib (first compound 0.03162 µM), 0.101; with Gemcitabine + Alpelisib (first compound 0.1 µM), 0.07; in the experiment with Gemcitabine + Pemetrexed (first compound 0.001 µM), 0.773. The relative viability was found to be 0.174 in the experiment with Gemcitabine + Pemetrexed (first compound 0.003162 µM); 0.0569 with Gemcitabine + Pemetrexed (first compound 0.01 µM); 0.0984 with Gemcitabine + Pemetrexed (first compound 0.03162 µM); 0.0556 with Gemcitabine + Pemetrexed (first compound 0.1 µM); 0.578 with Gemcitabine + Olaparib (first compound 0.001 µM); 0.0978 with Gemcitabine + Olaparib (first compound 0.003162 µM). Moreover, the results for the relative viability with Gemcitabine + Olaparib (first compound 0.01 µM), with Gemcitabine + Olaparib (first compound 0.03162 µM) and with Gemcitabine + Olaparib (first compound 0.1 µM) were 0.0544, 0.112 and 0.0454, respectively.
